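Five compound concentrations were applied to cells in 96-well plates for 48 hours; endpoints were derived by simple linear interpolation of the resulting dose-response curve. The concentration for 50% growth inhibition is given as GI50. TGI denotes the concentration required for complete inhibition of growth.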
How the values were obtained:
Assay in all cases: NCI-60 cell line screen, 48 h
[1] = test system: 786-0 renal
[2] = test system: A549 NSCLC
[3] = test system: ACHN renal
[4] = test system: BT-549 breast
[5] = test system: CAKI-1 renal
[6] = test system: CCRF-CEM leukemia
[7] = test system: COLO 205 colon
[8] = test system: DU-145 prostate
[9] = test system: EKVX NSCLC
[10] = test system: HCC-2998 colon
[11] = test system: HCT-116 colon
[12] = test system: HCT-15 colon
[13] = test system: HL-60(TB) leukemia
[14] = test system: HOP-62 NSCLC
[15] = test system: HS 578T breast
[16] = test system: HT29 colon
[17] = test system: IGROV1 ovarian
[18] = test system: K-562 leukemia
[19] = test system: KM12 colon
[20] = test system: LOX IMVI melanoma
[21] = test system: M14 melanoma
[22] = test system: MALME-3M melanoma
[23] = test system: MCF7 breast
[24] = test system: MDA-MB-231 breast
[25] = test system: MOLT-4 leukemia
[26] = test system: NCI-H226 lung
[27] = test system: NCI-H23 lung
[28] = test system: NCI-H460 lung
[29] = test system: NCI-H522 lung
[30] = test system: NCI/ADR-RES ovarian
[31] = test system: OVCAR-4 ovarian
[32] = test system: OVCAR-5 ovarian
[33] = test system: OVCAR-8 ovarian
[34] = test system: PC-3 prostate
[35] = test system: RXF 393 renal
[36] = test system: SF-268 CNS
[37] = test system: SF-295 CNS
[38] = test system: SF-539 CNS
[39] = test system: SK-MEL-2 melanoma
[40] = test system: SK-MEL-28 melanoma
[41] = test system: SK-MEL-5 melanoma
[42] = test system: SK-OV-3 ovarian
[43] = test system: SN12C renal
[44] = test system: SNB-19 CNS
[45] = test system: SNB-75 CNS
[46] = test system: SR leukemia
[47] = test system: SW-620 colon
[48] = test system: T-47D breast
[49] = test system: TK-10 renal
[50] = test system: U251 CNS
[51] = test system: UACC-257 melanoma
[52] = test system: UACC-62 melanoma
[53] = test system: UO-31 renal
[54] = test system: HOP-92 NSCLC
[55] = test system: A498 renal
[56] = test system: MDA-MB-435
[57] = test system: OVCAR-3 ovarian
[58] = test system: RPMI-8226 leukemia

## O=C(O)C1(C(=O)O)CC1(C(=O)O)C(=O)O
[1]
  TGI: > 100 µM
[2]
  TGI: > 100 µM
[3]
  TGI: > 100 µM
[4]
  TGI: > 100 µM
[5]
  TGI: > 100 µM
[6]
  TGI: > 100 µM
[7]
  TGI: > 100 µM
[8]
  TGI: > 100 µM
[9]
  TGI: > 100 µM
[10]
  TGI: > 100 µM
[11]
  TGI: > 100 µM
[12]
  TGI: > 100 µM
[13]
  TGI: > 100 µM
[14]
  TGI: > 100 µM
[15]
  TGI: > 100 µM
[16]
  TGI: > 100 µM
[17]
  TGI: > 100 µM
[18]
  TGI: > 100 µM
[19]
  TGI: > 100 µM
[20]
  TGI: > 100 µM
[21]
  TGI: > 100 µM
[22]
  TGI: > 100 µM
[23]
  TGI: > 100 µM
[24]
  TGI: > 100 µM
[25]
  TGI: > 100 µM
[26]
  TGI: > 100 µM
[27]
  TGI: > 100 µM
[28]
  TGI: > 100 µM
[29]
  TGI: > 100 µM
[30]
  TGI: > 100 µM
[31]
  TGI: > 100 µM
[32]
  TGI: > 100 µM
[33]
  TGI: > 100 µM
[34]
  TGI: > 100 µM
[35]
  TGI: > 100 µM
[36]
  TGI: > 100 µM
[37]
  TGI: > 100 µM
[38]
  TGI: > 100 µM
[39]
  TGI: > 100 µM
[40]
  TGI: > 100 µM
[41]
  TGI: > 100 µM
[42]
  TGI: > 100 µM
[43]
  TGI: > 100 µM
[44]
  TGI: > 100 µM
[45]
  TGI: > 100 µM
[46]
  TGI: > 100 µM
[47]
  TGI: > 100 µM
[48]
  TGI: > 100 µM
[49]
  TGI: > 100 µM
[50]
  TGI: > 100 µM
[51]
  TGI: > 100 µM
[52]
  TGI: > 100 µM
[53]
  TGI: > 100 µM

## Nc1nc(Nc2ccccc2)sc1C(=O)c1ccc(Cl)cc1
[4]
  TGI: > 100 µM
[5]
  TGI: 27.4 µM
[6]
  TGI: > 100 µM
[7]
  TGI: > 100 µM
[9]
  TGI: > 100 µM
[12]
  TGI: > 100 µM
[13]
  TGI: > 100 µM
[54]
  TGI: > 100 µM
[16]
  TGI: > 100 µM
[17]
  TGI: > 100 µM
[18]
  TGI: > 100 µM
[19]
  TGI: > 100 µM
[21]
  TGI: > 100 µM
[23]
  TGI: > 100 µM
[24]
  TGI: > 100 µM
[25]
  TGI: > 100 µM
[27]
  TGI: > 100 µM
[31]
  TGI: 3.01 µM
[32]
  TGI: > 100 µM
[35]
  TGI: 5.17 µM
[36]
  TGI: > 100 µM
[37]
  TGI: > 100 µM
[38]
  TGI: > 100 µM
[39]
  TGI: > 100 µM
[40]
  TGI: > 100 µM
[44]
  TGI: > 100 µM
[46]
  TGI: > 100 µM
[47]
  TGI: > 49 µM
[48]
  TGI: > 100 µM
[49]
  TGI: > 100 µM

## C=C1C(=O)O[C@H]2[C@H]1CC/C(Cn1cc(Cn3ccc4ccccc43)nn1)=C\CC[C@@]1(C)O[C@@H]21
[1]
  GI50: 1.59 µM
  TGI: 3.12 µM
[55]
  GI50: 4.3 µM
  TGI: 16.6 µM
[2]
  GI50: 13.1 µM
  TGI: 27.4 µM
[3]
  GI50: 1.18 µM
  TGI: 2.43 µM
[4]
  GI50: 1.38 µM
  TGI: 2.69 µM
[5]
  GI50: 1.15 µM
  TGI: 2.38 µM
[6]
  GI50: 0.298 µM
  TGI: 1.73 µM
[7]
  GI50: 1.71 µM
  TGI: 3.41 µM
[8]
  GI50: 1.64 µM
  TGI: 3.01 µM
[9]
  GI50: 1.86 µM
  TGI: 4.22 µM
[10]
  GI50: 1.93 µM
  TGI: 3.66 µM
[11]
  GI50: 0.762 µM
  TGI: 2.15 µM
[12]
  GI50: 1.3 µM
  TGI: 2.77 µM
[13]
  GI50: 1.2 µM
  TGI: 3.79 µM
[14]
  GI50: 6.96 µM
  TGI: 20.1 µM
[54]
  GI50: 1.01 µM
  TGI: 2.29 µM
[15]
  GI50: 2.9 µM
  TGI: 14.2 µM
[16]
  GI50: 1.7 µM
  TGI: 3.27 µM
[17]
  GI50: 1.86 µM
  TGI: 3.61 µM
[18]
  GI50: 1.77 µM
  TGI: 5.65 µM
[19]
  GI50: 4.21 µM
  TGI: 15.2 µM
[20]
  GI50: 1.59 µM
  TGI: 3.08 µM
[21]
  GI50: 1.25 µM
  TGI: 2.79 µM
[22]
  GI50: 1.59 µM
  TGI: 3.34 µM
[23]
  GI50: 1.3 µM
  TGI: 3.18 µM
[24]
  GI50: 1.31 µM
  TGI: 2.84 µM
[56]
  GI50: 1.7 µM
  TGI: 3.39 µM
[25]
  GI50: 1.48 µM
  TGI: 5.11 µM
[26]
  GI50: 1.53 µM
  TGI: 3.06 µM
[27]
  GI50: 2.5 µM
  TGI: 6.49 µM
[28]
  GI50: 5.66 µM
  TGI: 19.7 µM
[29]
  GI50: 1.27 µM
  TGI: 2.69 µM
[30]
  GI50: 5.07 µM
  TGI: 21.6 µM
[57]
  GI50: 1.62 µM
  TGI: 3.01 µM
[31]
  GI50: 1.67 µM
  TGI: 3.46 µM
[32]
  GI50: 1.59 µM
  TGI: 3.21 µM
[33]
  GI50: 2.73 µM
  TGI: 8.22 µM
[34]
  GI50: 1.47 µM
  TGI: 2.98 µM
[58]
  GI50: 1.68 µM
  TGI: 4.7 µM
[35]
  GI50: 1.41 µM
  TGI: 2.82 µM
[36]
  GI50: 1.82 µM
  TGI: 3.63 µM
[37]
  GI50: 7.87 µM
  TGI: 21.3 µM
[38]
  GI50: 1.86 µM
  TGI: 3.35 µM
[39]
  GI50: 1.73 µM
  TGI: 3.96 µM
[40]
  GI50: 1.67 µM
  TGI: 3.25 µM
[41]
  GI50: 1.97 µM
  TGI: 4.38 µM
[42]
  GI50: 16 µM
  TGI: 30.1 µM
[43]
  GI50: 1.65 µM
  TGI: 3.46 µM
[44]
  GI50: 3.88 µM
  TGI: 15.7 µM
[45]
  GI50: 2.61 µM
  TGI: 15.6 µM
[46]
  GI50: 0.345 µM
  TGI: 3.71 µM
[47]
  GI50: 1.42 µM
  TGI: 3.01 µM
[49]
  GI50: 1.65 µM
  TGI: 3.05 µM
[50]
  GI50: 3.42 µM
  TGI: 12.1 µM
[51]
  GI50: 2.04 µM
  TGI: 4.41 µM
[52]
  GI50: 1.44 µM
  TGI: 2.89 µM
[53]
  GI50: 1.26 µM
  TGI: 2.53 µM

Source: PubChem BioAssay (NCI)
